{
  "source": "patent US20240148821A1",
  "about": "“PHARMACEUTICAL USE OF CYCLIC PEPTIDE COMPOUND” (CHUGAI SEIYAKU KABUSHIKI KAISHA, priority 2021, published 2024)",
  "key": {"[1]": {"test_system": "Human pancreatic cancer cell line AsPC-1 (G12D mutation Kras)", "test": "AsPC-1 cell growth inhibition (AsPC-1 CGI)", "format": "cell-based", "conditions": "read-out: AsPC-1 cell growth inhibition, 50% growth inhibitory concentration (IC50 value); 96 hours, CellTiter-Glo, values classified in ranges"}, "[2]": {"biological_target": "protein-protein interaction between Kras and SOS1 (biotin-tagged human Kras loaded with GDP, His-tagged human SOS1) (Homo sapiens (Human), UniProt P01116, G12D)", "test": "Protein-protein interaction inhibition between Kras and SOS1 (KrasG12D-SOS PPI) using AlphaScreen;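 note: kras produced in E. coli, Ni-coupled donor beads and streptavidin acceptor beads, excitation 680 nm with emission detected at 520–620 nm via singlet oxygen transfer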", "format": "biochemical", "conditions": "AlphaScreen; biotin-tagged human Kras loaded with GDP, His-tagged human SOS1; read-out: KRAS G12D-SOS PPI IC50"}},
  "note": "pIC50: −log10 of the molar value. Numbered stars: 1 amine (or outer) side, 2 acyl side, 3 side chain; on linkers, the order of the positions; unused ones are H or OH. Bridge positions count the residues as written; N and C are the ends. Square brackets hold non-standard residues; d marks the D form. Peptide text beside a SMILES is read from it. * marks the point of attachment. hPhe(3-Cl-4-CF3) = N[C@@H](CCc1ccc(C(F)(F)F)c(Cl)c1)C(=O)O; hPhe(3-F,4-CF3) = N[C@@H](CCc1ccc(C(F)(F)F)c(F)c1)C(=O)O; hPhe(4-CF3) = N[C@@H](CCc1ccc(C(F)(F)F)cc1)C(=O)O; NMePhe(4-Cl) = CN[C@@H](Cc1ccc(Cl)cc1)C(=O)O; NMePhe(4-Me) = CN[C@@H](Cc1ccc(C)cc1)C(=O)O; NMedβ3hAla = C[C@H](CC(=O)[*:2])N(C)[*:1]; NMeGly(cPent) = CN[C@H](C(=O)O)C1CCCC1; NMeGly(cBu) = CN[C@H](C(=O)O)C1CCC1; NMeCha = CN[C@@H](CC1CCCCC1)C(=O)O; NMeAhp(2) = CCCCC[C@H](NC)C(=O)O; NMeD = CN[C@@H](CC(=O)O)C(=O)O; NMeL = CN[C@@H](CC(C)C)C(=O)O; Oxazolidin(3-yl) = C1CN(*)CO1; NMeV = CN[C@H](C(=O)O)C(C)C; d(β3hA) = C[C@@H](N)CC(=O)O; NMeC = CN[C@@H](CS)C(=O)O; NPhGly = O=C(O)CNc1ccccc1; Morpholide = C1CN(*)CCO1; NMeA = CN[C@@H](C)C(=O)O; Piperidide = C1CCN(*)CC1; Pyrrolidide = C1CCN(*)C1; Ac5c = NC1(C(=O)O)CCCC1; Aze = O=C(O)[C@@H]1CCN1; NEtG = CCNCC(=O)O; Sar = CNCC(=O)O",
  "data": [
    {"compound": "CC[C@H](C)[C@@H]1NC(=O)[C@H](CC(C)C)N(C)C(=O)C[C@@H](C(=O)N2CCOC2)NC(=O)[C@H](C(C)C)N(C)C(=O)C2(CCCC2)NC(=O)[C@@H]2CCCN2C(=O)[C@H](CCc2ccc(C(F)(F)F)c(Cl)c2)NC(=O)CN(C)C(=O)[C@H](CC2CCCCC2)N(C)C(=O)[C@@H]2CCN2C(=O)[C@H](C)N(C)C1=O", "note": "[Compound 1188] ([NMeL]I[NMeA][Aze][NMeCha][Sar][hPhe(3-Cl-4-CF3)]P[Ac5c][NMeV]D-{Oxazolidin(3-yl)}; lactam N-11)", "values": [
      {"measurement": "pIC50", "setting": "[1]", "result": "< 6.30"},
      {"measurement": "pIC50", "setting": "[2]", "result": 7.48}
    ]},
    {"compound": "CC[C@H](C)[C@@H]1NC(=O)[C@H](CC(C)C)N(C)C(=O)CSC[C@@H](C(=O)N(C)C)N(C)C(=O)[C@H](C2CCCC2)N(C)C(=O)C2(CCCC2)NC(=O)[C@@H]2CCCN2C(=O)[C@H](CCc2ccc(C(F)(F)F)c(Cl)c2)NC(=O)CN(C)C(=O)[C@H](Cc2ccc(C)cc2)N(C)C(=O)[C@@H]2CCN2C(=O)[C@H](C)N(C)C1=O", "note": "[Compound 2177] ({CH2CO}-[NMeL]I[NMeA][Aze][NMePhe(4-Me)][Sar][hPhe(3-Cl-4-CF3)]P[Ac5c][NMeGly(cPent)][NMeC]-NMe2; thioether N-11)", "values": [
      {"measurement": "pIC50", "setting": "[1]", "result": "< 6.30"},
      {"measurement": "pIC50", "setting": "[2]", "result": 6.60}
    ]},
    {"compound": "CC[C@H](C)[C@@H]1NC(=O)[C@H](C)N(C)C(=O)C[C@@H](C)NC(=O)[C@H](CC(C)C)N(C)C(=O)C2(CCCC2)NC(=O)[C@H](CC(C)C)N(C)C(=O)[C@H](CCc2ccc(C(F)(F)F)c(Cl)c2)NC(=O)CN(C)C(=O)[C@H](CC2CCCCC2)N(C)C(=O)CN(C)C(=O)CN(C)C1=O", "note": "[Compound 61] (cyclo([Ac5c][NMeL][d(β3hA)][NMeA]I[Sar][Sar][NMeCha][Sar][hPhe(3-Cl-4-CF3)][NMeL]))", "values": [
      {"measurement": "pIC50", "setting": "[1]", "result": "< 6.30"},
      {"measurement": "pIC50", "setting": "[2]", "result": 7.80}
    ]},
    {"compound": "CC[C@H](C)[C@@H]1NC(=O)[C@H](CC(C)C)N(C)C(=O)C[C@@H](C(=O)N(C)C)N(C)C(=O)[C@H](C2CCCC2)N(C)C(=O)[C@H](C)NC(=O)[C@@H]2CCCN2C(=O)[C@H](CCc2ccc(C(F)(F)F)c(Cl)c2)NC(=O)CN(C)C(=O)[C@H](CC2CCCCC2)N(C)C(=O)[C@@H]2CCN2C(=O)[C@H](C)N(C)C1=O", "note": "[Compound 314] ([NMeL]I[NMeA][Aze][NMeCha][Sar][hPhe(3-Cl-4-CF3)]PA[NMeGly(cPent)][NMeD]-NMe2; lactam N-11)", "values": [
      {"measurement": "pIC50", "setting": "[1]", "result": "< 6.30"},
      {"measurement": "pIC50", "setting": "[2]", "result": 8.59}
    ]},
    {"compound": "CC[C@H](C)[C@@H]1NC(=O)[C@H](C)N(C)C(=O)C[C@@H](C)N(C)C(=O)[C@H](C2CCC2)N(C)C(=O)C2(CCCC2)NC(=O)CN(c2ccccc2)C(=O)[C@H](CCc2ccc(C(F)(F)F)c(Cl)c2)NC(=O)CN(C)C(=O)[C@H](CC2CCCCC2)N(C)C(=O)CN(C)C(=O)CN(C)C1=O", "note": "[Compound 2143] (cyclo([Ac5c][NMeGly(cBu)][NMedβ3hAla][NMeA]I[Sar][Sar][NMeCha][Sar][hPhe(3-Cl-4-CF3)][NPhGly]))", "values": [
      {"measurement": "pIC50", "setting": "[1]", "result": "< 6.30"},
      {"measurement": "pIC50", "setting": "[2]", "result": 7.39}
    ]},
    {"compound": "CC[C@H](C)[C@@H]1NC(=O)[C@H](C(C)C)N(C)C(=O)C[C@@H](C(=O)N2CCCC2)NC(=O)[C@H](CC(C)C)N(C)C(=O)C2(CCCC2)NC(=O)[C@H](CC(C)C)N(C)C(=O)[C@H](CCc2ccc(C(F)(F)F)cc2)NC(=O)CN(C)C(=O)[C@H](Cc2ccc(Cl)cc2)N(C)C(=O)CN(C)C(=O)CN(C)C1=O", "note": "[Compound 769] ([NMeV]I[Sar][Sar][NMePhe(4-Cl)][Sar][hPhe(4-CF3)][NMeL][Ac5c][NMeL]D-Pyrrolidide; lactam N-11)", "values": [
      {"measurement": "pIC50", "setting": "[1]", "result": "< 6.30"},
      {"measurement": "pIC50", "setting": "[2]", "result": 7.28}
    ]},
    {"compound": "CCCCC[C@H]1C(=O)N(C)[C@H](C(=O)N2CCCCC2)CC(=O)N(C)[C@@H](CC(C)C)C(=O)N[C@@H]([C@@H](C)CC)C(=O)N(C)[C@@H](C)C(=O)N2CC[C@H]2C(=O)N(C)[C@@H](CC2CCCCC2)C(=O)N(C)CC(=O)N[C@@H](CCc2ccc(C(F)(F)F)c(Cl)c2)C(=O)N2CCC[C@H]2C(=O)NC2(CCCC2)C(=O)N1C", "note": "[Compound 1707] ([NMeL]I[NMeA][Aze][NMeCha][Sar][hPhe(3-Cl-4-CF3)]P[Ac5c][NMeAhp(2)][NMeD]-Piperidide; lactam N-11)", "values": [
      {"measurement": "pIC50", "setting": "[1]", "result": "< 6.30"},
      {"measurement": "pIC50", "setting": "[2]", "result": 6.74}
    ]},
    {"compound": "CC[C@H](C)[C@@H]1NC(=O)[C@H](CC(C)C)N(C)C(=O)C[C@@H](C(=O)N2CCOCC2)N(C)C(=O)[C@H](C2CCCC2)N(C)C(=O)C2(CCCC2)NC(=O)[C@@H]2CCCN2C(=O)[C@H](CCc2ccc(C(F)(F)F)c(Cl)c2)NC(=O)CN(CC)C(=O)[C@H](CC2CCCCC2)N(C)C(=O)[C@@H]2CCN2C(=O)[C@H](C)N(C)C1=O", "note": "[Compound 1272] ([NMeL]I[NMeA][Aze][NMeCha][NEtG][hPhe(3-Cl-4-CF3)]P[Ac5c][NMeGly(cPent)][NMeD]-Morpholide; lactam N-11)", "values": [
      {"measurement": "pIC50", "setting": "[1]", "result": "≥ 7.70"},
      {"measurement": "pIC50", "setting": "[2]", "result": 8.70}
    ]},
    {"compound": "CC[C@H](C)[C@@H]1NC(=O)[C@H](CC(C)C)N(C)C(=O)C[C@@H](C(=O)N2CCOCC2)N(C)C(=O)[C@H](C2CCCC2)N(C)C(=O)C2(CCCC2)NC(=O)[C@@H]2CCCN2C(=O)[C@H](CCc2ccc(C(F)(F)F)c(F)c2)NC(=O)CN(C)C(=O)[C@H](Cc2ccc(C)cc2)N(C)C(=O)[C@@H]2CCN2C(=O)[C@H](C)N(C)C1=O", "note": "[Compound 938] ([NMeL]I[NMeA][Aze][NMePhe(4-Me)][Sar][hPhe(3-F,4-CF3)]P[Ac5c][NMeGly(cPent)][NMeD]-Morpholide; lactam N-11)", "values": [
      {"measurement": "pIC50", "setting": "[1]", "result": "≥ 7.70"},
      {"measurement": "pIC50", "setting": "[2]", "result": 9.16}
    ]}
  ]
}
